# According to ChEMBL document CHEMBL5465560, “Selectivity Literature for EUbOPEN Chemogenomic Library” (2024):
# How the values were obtained:
# [1] = target: Nuclear receptor subfamily 1 group I member 2 (Homo sapiens, UniProt O75469); test: Selectivity interaction (PXR Receptor agonist/antagonist assay: TR-FRET human recombinant ) EUB0000877a NR1I2
# [2] = target: T1, Ephrin type-B receptor 6 (Homo sapiens) (UniProt O15197); test: Selectivity interaction (KinomeScan (DiscoverX)) EUB0000618a EPHB6; conditions: at 10 µM
# T1 sequence (whole entry): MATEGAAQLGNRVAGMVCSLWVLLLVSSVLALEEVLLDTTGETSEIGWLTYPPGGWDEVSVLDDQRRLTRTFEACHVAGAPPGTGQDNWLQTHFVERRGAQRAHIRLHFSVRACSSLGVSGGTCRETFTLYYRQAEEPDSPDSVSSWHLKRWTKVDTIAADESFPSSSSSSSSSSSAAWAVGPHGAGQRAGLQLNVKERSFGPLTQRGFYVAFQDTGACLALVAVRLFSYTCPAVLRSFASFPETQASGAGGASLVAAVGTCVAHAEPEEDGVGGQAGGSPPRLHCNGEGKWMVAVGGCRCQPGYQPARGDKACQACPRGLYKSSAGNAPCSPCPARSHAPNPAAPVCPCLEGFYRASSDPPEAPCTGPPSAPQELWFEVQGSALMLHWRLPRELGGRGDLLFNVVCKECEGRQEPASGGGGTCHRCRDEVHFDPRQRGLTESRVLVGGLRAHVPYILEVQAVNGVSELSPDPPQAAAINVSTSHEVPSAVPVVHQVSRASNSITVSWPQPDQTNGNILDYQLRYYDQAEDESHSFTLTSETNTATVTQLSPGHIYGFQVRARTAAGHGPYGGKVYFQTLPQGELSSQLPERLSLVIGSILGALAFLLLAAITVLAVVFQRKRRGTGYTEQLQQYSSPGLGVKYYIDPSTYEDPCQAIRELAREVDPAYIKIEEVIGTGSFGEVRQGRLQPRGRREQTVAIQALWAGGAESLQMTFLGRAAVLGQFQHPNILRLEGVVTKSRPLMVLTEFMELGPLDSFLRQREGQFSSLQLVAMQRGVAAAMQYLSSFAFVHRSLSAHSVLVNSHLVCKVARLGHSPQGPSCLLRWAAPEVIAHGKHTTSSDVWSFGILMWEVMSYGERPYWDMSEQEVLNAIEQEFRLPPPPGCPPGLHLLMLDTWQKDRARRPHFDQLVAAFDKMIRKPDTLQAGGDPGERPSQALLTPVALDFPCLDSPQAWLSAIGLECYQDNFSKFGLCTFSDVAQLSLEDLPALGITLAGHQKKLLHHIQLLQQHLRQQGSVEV
# [3] = target: T2, Dual serine/threonine and tyrosine protein kinase (Homo sapiens) (UniProt Q6XUX3); test: Selectivity interaction (KinomeScan (DiscoverX)) EUB0000618a DSTYK; conditions: at 10 µM
# T2 sequence (whole entry): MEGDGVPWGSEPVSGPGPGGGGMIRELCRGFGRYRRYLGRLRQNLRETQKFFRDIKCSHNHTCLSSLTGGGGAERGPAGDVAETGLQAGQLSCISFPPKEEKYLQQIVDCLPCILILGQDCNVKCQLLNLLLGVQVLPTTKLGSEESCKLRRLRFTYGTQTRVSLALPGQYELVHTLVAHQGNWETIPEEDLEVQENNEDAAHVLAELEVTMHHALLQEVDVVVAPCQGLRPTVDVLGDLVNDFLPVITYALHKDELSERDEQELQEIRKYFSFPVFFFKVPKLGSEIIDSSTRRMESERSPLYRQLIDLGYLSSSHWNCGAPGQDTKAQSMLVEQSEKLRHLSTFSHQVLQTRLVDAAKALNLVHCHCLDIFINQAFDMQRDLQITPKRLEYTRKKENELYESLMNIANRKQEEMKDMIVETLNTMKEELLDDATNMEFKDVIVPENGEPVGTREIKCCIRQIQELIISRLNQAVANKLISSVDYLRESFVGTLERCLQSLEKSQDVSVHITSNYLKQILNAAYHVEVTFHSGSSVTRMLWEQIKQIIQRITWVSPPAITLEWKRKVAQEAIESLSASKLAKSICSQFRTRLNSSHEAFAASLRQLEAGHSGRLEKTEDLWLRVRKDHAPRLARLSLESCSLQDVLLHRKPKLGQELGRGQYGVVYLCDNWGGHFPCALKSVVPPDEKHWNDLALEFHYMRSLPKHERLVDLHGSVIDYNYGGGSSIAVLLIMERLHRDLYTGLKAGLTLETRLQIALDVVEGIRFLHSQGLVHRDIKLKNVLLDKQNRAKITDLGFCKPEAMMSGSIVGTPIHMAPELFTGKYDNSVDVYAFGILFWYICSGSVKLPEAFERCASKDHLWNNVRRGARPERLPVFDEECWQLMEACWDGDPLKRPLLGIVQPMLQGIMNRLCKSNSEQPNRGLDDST
# [4] = target: Serine/threonine-protein kinase/endoribonuclease IRE1 (Homo sapiens) (UniProt O75460); test: Selectivity interaction (ActivX KiNativ screen (ex vivo kinase selectivity in human PBMCs)) EUB0001619a ERN1; assay type: cell-based; conditions: PBMC, at 1 µM
# [5] = target: Fibroblast growth factor receptor 1 (Homo sapiens, UniProt P11362); test: Selectivity interaction (SelectScreen profiling (Invitrogen)) EUB0000607a FGFR1; conditions: at 2 µM
# Sequence of Fibroblast growth factor receptor 1 (P11362 22-822 limits assumed): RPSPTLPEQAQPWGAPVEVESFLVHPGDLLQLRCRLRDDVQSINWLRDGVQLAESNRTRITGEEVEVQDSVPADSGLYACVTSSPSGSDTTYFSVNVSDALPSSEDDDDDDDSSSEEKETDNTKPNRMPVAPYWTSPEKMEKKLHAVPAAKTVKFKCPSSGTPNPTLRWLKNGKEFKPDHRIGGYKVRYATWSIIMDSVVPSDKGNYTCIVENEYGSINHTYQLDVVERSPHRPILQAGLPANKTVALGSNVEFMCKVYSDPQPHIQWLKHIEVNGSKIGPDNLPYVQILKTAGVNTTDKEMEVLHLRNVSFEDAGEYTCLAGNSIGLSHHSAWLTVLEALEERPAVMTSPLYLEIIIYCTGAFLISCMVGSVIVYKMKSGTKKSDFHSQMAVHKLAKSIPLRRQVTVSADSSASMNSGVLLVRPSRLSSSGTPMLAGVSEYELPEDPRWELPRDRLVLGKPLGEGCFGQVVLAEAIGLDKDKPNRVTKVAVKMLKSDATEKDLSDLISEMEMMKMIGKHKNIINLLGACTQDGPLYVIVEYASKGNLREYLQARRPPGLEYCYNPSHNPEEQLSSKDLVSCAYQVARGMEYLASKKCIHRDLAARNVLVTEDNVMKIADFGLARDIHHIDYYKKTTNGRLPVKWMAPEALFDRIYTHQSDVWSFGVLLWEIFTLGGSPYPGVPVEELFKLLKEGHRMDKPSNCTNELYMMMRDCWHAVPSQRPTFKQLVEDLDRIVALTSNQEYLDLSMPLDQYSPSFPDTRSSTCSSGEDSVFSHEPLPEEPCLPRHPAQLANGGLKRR
# Sequence of Serine/threonine-protein kinase/endoribonuclease IRE1 (Homo sapiens) (O75460 19-977 limits assumed): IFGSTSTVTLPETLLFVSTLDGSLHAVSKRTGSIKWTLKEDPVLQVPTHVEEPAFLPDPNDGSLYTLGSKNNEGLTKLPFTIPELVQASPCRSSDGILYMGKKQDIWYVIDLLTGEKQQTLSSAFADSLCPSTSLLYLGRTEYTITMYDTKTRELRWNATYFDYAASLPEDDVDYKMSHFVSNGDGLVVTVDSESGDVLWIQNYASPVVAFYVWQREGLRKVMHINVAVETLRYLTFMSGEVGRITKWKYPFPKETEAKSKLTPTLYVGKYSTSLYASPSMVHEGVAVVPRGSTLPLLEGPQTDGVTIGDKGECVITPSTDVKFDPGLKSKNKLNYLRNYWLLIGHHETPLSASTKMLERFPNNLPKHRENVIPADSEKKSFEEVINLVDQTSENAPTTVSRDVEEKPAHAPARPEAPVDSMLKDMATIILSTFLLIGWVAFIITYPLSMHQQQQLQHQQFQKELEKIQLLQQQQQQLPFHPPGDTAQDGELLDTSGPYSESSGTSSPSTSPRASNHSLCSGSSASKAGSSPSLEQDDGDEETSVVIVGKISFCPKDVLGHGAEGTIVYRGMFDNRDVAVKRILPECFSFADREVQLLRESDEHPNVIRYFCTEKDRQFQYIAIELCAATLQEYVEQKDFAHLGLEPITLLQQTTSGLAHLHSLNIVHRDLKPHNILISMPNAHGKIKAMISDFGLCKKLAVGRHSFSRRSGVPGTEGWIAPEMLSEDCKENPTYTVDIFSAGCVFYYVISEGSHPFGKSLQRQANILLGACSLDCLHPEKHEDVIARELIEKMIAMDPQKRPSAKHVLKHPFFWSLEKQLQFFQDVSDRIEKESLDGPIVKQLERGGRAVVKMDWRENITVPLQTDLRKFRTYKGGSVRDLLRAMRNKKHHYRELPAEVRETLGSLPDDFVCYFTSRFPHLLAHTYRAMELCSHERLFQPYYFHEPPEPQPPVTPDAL
# Sequence of Nuclear receptor subfamily 1 group I member 2 (O75469 whole entry): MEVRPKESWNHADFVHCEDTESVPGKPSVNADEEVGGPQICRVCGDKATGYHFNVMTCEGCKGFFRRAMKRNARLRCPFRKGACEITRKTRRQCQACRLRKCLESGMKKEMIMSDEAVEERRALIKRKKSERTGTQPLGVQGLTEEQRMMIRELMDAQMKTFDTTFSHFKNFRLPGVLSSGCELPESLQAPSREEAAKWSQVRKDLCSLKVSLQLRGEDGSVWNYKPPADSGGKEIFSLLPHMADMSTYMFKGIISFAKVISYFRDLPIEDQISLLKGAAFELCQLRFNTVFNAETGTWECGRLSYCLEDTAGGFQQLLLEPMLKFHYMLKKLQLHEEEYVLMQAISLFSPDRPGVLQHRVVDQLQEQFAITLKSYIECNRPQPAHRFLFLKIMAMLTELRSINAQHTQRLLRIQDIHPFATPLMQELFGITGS
structure (smiles),measurement,setting,value
CCC(=O)N1CC[C@H](Nc2ncnc3c2CN(c2cnc(OC)c(C(F)(F)F)c2)CC3)C1 [LENIOLISIB],IC50,[1],> 30 µM
O[C@H]1CC[C@H](Nc2ncc3nc(Nc4c(F)cc(F)cc4F)n([C@H]4CCOC4)c3n2)CC1,% of control,[2],7.8%
same,% of control,[3],91%
N#Cc1cccc(-c2c[nH]c3ncnc(N4CCOCC4)c23)c1,% of inhibition,[4],2%
CNC(=O)Nc1ccc(-c2nc(N3CC4CCC(C3)O4)c3cnn(C4CCC5(CC4)OCCO5)c3n2)cc1,% of inhibition,[5],4%
